Consider 3 compounds from patent US4837399A, “Napthoquinone antibiotics from fuserium solani” (The United States of America as represented by the …, priority 1988, dated 1989).

Common to all, as to assay type: cell-based
The test system of one assay is Streptococcus pyogenes. Put plainly: Broth microdilution assay, Streptococcus pyogenes. The note with it: for MIC: B = Streptococcus pyogenes, complete suppression of microbial growth, read-out: Antibacterial activity (MIC). On the procedure: (§1) Purified compounds were tested for antibiotic activity by dissolving in dimethyl sulfoxide and utilizing a standard broth microdilution assay. The smallest amount of compound resulting in complete inhibition of bacterial growth is the minimum inhibitory concentration (MIC).
(§2) The organisms used in the tests were three strains of gram-positive bacteria: Staphylococcus aureus, Streptococcus pyogenes, and a strain of Staphylococcus aureus which was resistant to the antibiotic methicillin.
(§3) Antimicrobial activity of compounds was determined against a group of bacterial pathogens, using a broth microdilution assay.Pathogens tested included Staphylococcus aureus, Streptococcus pyogenes, Escherichia coli, Serratia marcescens, Proteus vulgaris, Klebsiella pneumoniae, Salmonella typhi, and Pseudomonas aeruginosa. Activity against plant pathogenic bacteria was tested by applying acetone solutions of compounds to 14 mm Whatman No. 1 filter paper discs, drying and placing four discs/plate on freshly inoculated Kings medium B plates. Pseudomonas cepacia, P. cichorii, P. fluorescens, P. syringae pv. phaseolicola, P. viridiflava, and Xanthomonas campestris were exposed to discs containing 20 μg of compound; Curtobacterium flaccumfaciens pv. poinsettiae (formerly Corynebacterium poinsettiae) was tested at 20, 40, and 80 μg/disc. Using a similar assay procedure, Alternaria citri, Colletotrichum gloeosporioides, Diplodia natalensis, Fusarium solani, F. oxysporum, Geotrichum candidium, Phomopsis citri, and Phytophthora parasitica were tested to determine the antifungal properties of the compounds.

For assay [1], the system named is Curtobacterium flaccumfaciens pv. poinsettiae. Put plainly: Filter paper disc assay, Curtobacterium flaccumfaciens pv. poinsettiae. To be noted: 20, 40, and 80 μg/disc, Kings medium B plates. As to the method: as §3
They were, however, effective against gram-positive bacteria.

In another assay the test system is Staphylococcus aureus. Put plainly: Broth microdilution assay, Staphylococcus aureus. The note with it: for MIC: A = Staphylococcus aureus, complete suppression of microbial growth, read-out: Antibacterial activity (MIC). As to the method:
as §1, §2, §3

Assay [2] concerns Staphylococcus aureus 95 (resistant to methicillin). As to the kind of experiment: Broth microdilution assay, Staphylococcus aureus 95 (resistant to methicillin). As to the method: as §1, §2
In the next assay the test system is gram-positive bacteria. As to the kind of experiment: Broth microdilution assay, gram-positive bacteria overall. As to the method:
as §1, §2
as §3, with “Using a similar assay procedure, Alternaria citri, Colletotrichum gloeosporioides, Diplodia natalensis, Fusarium solani, F. oxysporum, Geotrichum candidium, Phomopsis citri, and Phytophthora parasitica were tested to determine the antifungal properties of the compounds.” left out

≈ marks a conversion by molar mass, not a printed value.

As to `COC1=CC(=O)c2c(O)c(CO)c3c(c2C1=O)OC(C)C3` (stereo not drawn) [Compound 2, 2,3-Dihydro-5-hydroxy-4-hydroxymethyl-8-methoxy-2-methyl-naphtho [1,2-b]furan-6,9-dione], the MIC in the assay with Streptococcus pyogenes worked out at 64 µg/mL (≈ 220 µM). In addition, the “ranking of activity against Curtobacterium flaccumfaciens pv. poinsettiae” value in assay [1] was “most active”. Moreover, in the assay on Staphylococcus aureus, the “effectiveness in control of Staphylococcus aureus (in words)” value is “most effective” and the MIC was determined as 4 µg/mL (≈ 13.8 µM).

In the case of `COC1=CC(=O)c2c(O)c(CO)c(CC(C)O)c(O)c2C1=O` (stereo not drawn) [Compound 3, 5,8-Dihydroxy-2-methoxy-6-hydroxymethyl-7-(2-hydroxypropyl)-1,4-naphthalenedione], the MIC in the assay on Streptococcus pyogenes was 64 µg/mL (≈ 208 µM); in the assay with Staphylococcus aureus, 1 µg/mL (≈ 3.24 µM). Moreover, the “ranking of activity against Curtobacterium flaccumfaciens pv. poinsettiae” value in assay [1] is “followed by 1 and 3”.

In the case of `COc1cc(O)c2c(c1O)C(=O)C(CC(C)O)C(CO)C2=O` (stereo not drawn) [Compound 1, 2,3-Dihydro-5,8-dihydroxy-6-methoxy-2-hydroxymethyl-3-(2-hydroxypropyl)-1,4-naphthalenedione], the “preference for control of Streptococcus pyogenes (in words)” value in the assay with Streptococcus pyogenes is given as “preferred”. Also, the MIC was 0.5 µg/mL (≈ 1.61 µM) in the assay on Streptococcus pyogenes; 1 µg/mL (≈ 3.22 µM) in the assay with Staphylococcus aureus; 4 µg/mL (≈ 12.9 µM) in assay [2] (C = Staphylococcus aureus 95 (resistant to methicillin), complete suppression of microbial growth, read-out: Antibacterial activity (MIC)); 0.5 to 1 µg/mL (≈ 1.61 to 3.22 µM) in the assay on gram-positive bacteria (read-out: inhibiting growth). In the assay on Staphylococcus aureus, the “effectiveness in control of Staphylococcus aureus (in words)” value is recorded as “most effective”. In addition, the “preference for control of Staphylococcus aureus 95 (in words)” value in assay [2] is listed as “preferred”. Further, the “effectiveness against gram-positive bacteria (in words)” value in the assay with gram-positive bacteria is on record as “the most effective”.
